Measured values taken from patent publication US11696913B2, “Prolonged ectoparasite-controlling agent for animal” (MITSUI CHEMICALS AGRO, INC., priority 2017, dated 2023).
Like-named read-outs stand apart in the source and are kept apart here.

Tests used:
Ctenocephalides felis [1] = assay: Topical treatment in-vivo test with cat flea on rats; conditions: topical spot-on
Protocol: (§1) Topical Treatment In-Vivo Test with American Dog Tick Nymph and Cat Flea on Rats
(§2) Type of study and overall study design: The method is a randomized non-blinded efficacy study in accordance with European animal welfare requirements. Rats (Rattus norvegicus) were randomized based on pre-treatment flea counts. The efficacy of treatment was determined by comparison of the flea and tick counts of different treatment groups versus the placebo-treated control group. The experimental unit was the individual study animal.
(§3) Method and route of administration: The compound was applied in a suitable solvent and carrier (more specifically, added to the following mixture: 33.3% by weight propylene carbonate, […] N-methylpyrrolidone, 0.1% by weight BHA, 0.05% by weight BHT) considering the individual body weight as topical spot-on between the shoulder blades directly onto the skin.
(§4) Experimental infestation: On the day of treatment and weekly thereafter, 30 ticks (D. variabilis nymphs) were released onto the back of each rat, and 30 fleas (C. felis) were released onto the back of each rat 24 h later.
(§5) Tick and Flea counting: Rats were thoroughly examined and ticks and fleas were manually removed 48 h (+4 h) after tick infestation and 24 h after flea infestation. Live fleas and live attached engorged ticks were counted. In non-evident cases, engorgement status was evaluated by squeezing the tick on a filter paper to find traces of blood as sign for engorgement.

Ctenocephalides felis [2] = assay: Systemic treatment in-vivo test with cat flea on rats; conditions: intraperitoneal injection; for inhibition in vivo at 2 mg/kg / inhibition in vivo at 10 mg/kg: Ctenocephalides felis, ip
Protocol: (§6) Systemic Treatment In-Vivo Test with American Dog Tick Nymph and Cat Flea on Rats
(§7) Type of study and overall study design: The method is a randomized non-blinded efficacy study in accordance with European animal welfare requirements. Rats (Rattus norvegicus) were randomized based on pre-treatment flea counts. The efficacy of treatment was determined by comparison of the flea and tick counts of different treatment groups versus the placebo-treated control group. The experimental unit was the individual study animal. Method and route of administration: The compound was applied in a suitable solvent and carrier (more specifically, added to glycerol formal; in case of poorly soluble compounds, a solvent mixture with up to 25% by volume of N-methyl pyrrolidone may be used.) considering the individual body weight as an intraperitoneal injection.
as §4
as §5, with “(±4” for “(+4”

Dermacentor variabilis [3] = assay: Topical treatment in-vivo test with American dog tick nymph on rats; conditions: topical spot-on, 25 mg/kg
Protocol: as §1, §2, §3, §4, §5

Dermacentor variabilis [4] = assay: Systemic treatment in-vivo test with American dog tick nymph on rats; conditions: intraperitoneal injection; for inhibition in vivo at 2 mg/kg / inhibition in vivo at 10 mg/kg: Dermacentor variabilis, ip
Protocol: as §6, §7, §4
as §5, with “(±4” for “(+4”

CN(C(=O)c1ccccc1)c1cccc(C(=O)Nc2c(Br)cc(C(F)(C(F)(F)F)C(F)(F)F)cc2C(F)(F)F)c1F [Compound (B), reference compound]
Geometric mean percent reduction in live flea (Ctenocephalides felis) counts compared to untreated control rats (Ctenocephalides felis [1]; 25 mg/kg, SD 2): 84% | Geometric mean percent reduction in live flea (Ctenocephalides felis) counts compared to untreated control rats (Ctenocephalides felis [1]; 25 mg/kg, SD 9): 72% | Geometric mean percent reduction in live flea (Ctenocephalides felis) counts compared to untreated control rats (Ctenocephalides felis [1]; 25 mg/kg, SD 16): 45% | inhibition in vivo at 2 mg/kg (Ctenocephalides felis [2]; 2 mg/kg, SD 2, read-out: Geometric mean percent reduction in live flea (Ctenocephalides felis) counts compared to untreated control rats): 97% | inhibition in vivo at 2 mg/kg (Ctenocephalides felis [2]; 2 mg/kg, SD 9, read-out: Geometric mean percent reduction in live flea (Ctenocephalides felis) counts compared to untreated control rats): 32% | inhibition in vivo at 10 mg/kg (Ctenocephalides felis [2]; 10 mg/kg, SD 2, read-out: Geometric mean percent reduction in live flea (Ctenocephalides felis) counts compared to untreated control rats): 100% | inhibition in vivo at 10 mg/kg (Ctenocephalides felis [2]; 10 mg/kg, SD 9, read-out: Geometric mean percent reduction in live flea (Ctenocephalides felis) counts compared to untreated control rats): 53% | inhibition in vivo at 10 mg/kg (Ctenocephalides felis [2]; 10 mg/kg, SD 16, read-out: Geometric mean percent reduction in live flea (Ctenocephalides felis) counts compared to untreated control rats): 6% | Geometric mean percent reduction in live tick (Dermacentor variabilis) counts compared to untreated control rats (Dermacentor variabilis [3]; SD 2): 58% | Geometric mean percent reduction in live tick (Dermacentor variabilis) counts compared to untreated control rats (Dermacentor variabilis [3]; SD 9): 85% | Geometric mean percent reduction in live tick (Dermacentor variabilis) counts compared to untreated control rats (Dermacentor variabilis [3]; SD 16): 65% | Geometric mean percent reduction in live tick (Dermacentor variabilis) counts compared to untreated control rats (Dermacentor variabilis [3]; SD 23): 4% | inhibition in vivo at 2 mg/kg (Dermacentor variabilis [4]; 2 mg/kg, SD 2, read-out: Geometric mean percent reduction in live tick (Dermacentor variabilis) counts compared to untreated control rats): 75% | inhibition in vivo at 2 mg/kg (Dermacentor variabilis [4]; 2 mg/kg, SD 9, read-out: Geometric mean percent reduction in live tick (Dermacentor variabilis) counts compared to untreated control rats): 63% | inhibition in vivo at 2 mg/kg (Dermacentor variabilis [4]; 2 mg/kg, SD 16, read-out: Geometric mean percent reduction in live tick (Dermacentor variabilis) counts compared to untreated control rats): 0% | inhibition in vivo at 10 mg/kg (Dermacentor variabilis [4]; 10 mg/kg, SD 2, read-out: Geometric mean percent reduction in live tick (Dermacentor variabilis) counts compared to untreated control rats): 100% | inhibition in vivo at 10 mg/kg (Dermacentor variabilis [4]; 10 mg/kg, SD 9, read-out: Geometric mean percent reduction in live tick (Dermacentor variabilis) counts compared to untreated control rats): 11% | inhibition in vivo at 10 mg/kg (Dermacentor variabilis [4]; 10 mg/kg, SD 16, read-out: Geometric mean percent reduction in live tick (Dermacentor variabilis) counts compared to untreated control rats): 2%

O=C(CNC(=O)c1ccc(C2=NOC(c3cc(Cl)cc(C(F)(F)F)c3)(C(F)(F)F)C2)c2ccccc12)NCC(F)(F)F (stereo not drawn) [Afoxolaner, afoxolaner, reference compound]
Geometric mean percent reduction in live flea (Ctenocephalides felis) counts compared to untreated control rats (Ctenocephalides felis [1]; 10 mg/kg, SD 2): 100% | Geometric mean percent reduction in live flea (Ctenocephalides felis) counts compared to untreated control rats (Ctenocephalides felis [1]; 10 mg/kg, SD 9): 99% | Geometric mean percent reduction in live flea (Ctenocephalides felis) counts compared to untreated control rats (Ctenocephalides felis [1]; 10 mg/kg, SD 16): 51% | Geometric mean percent reduction in live flea (Ctenocephalides felis) counts compared to untreated control rats (Ctenocephalides felis [1]; 10 mg/kg, SD 23): 16% | Geometric mean percent reduction in live flea (Ctenocephalides felis) counts compared to untreated control rats (Ctenocephalides felis [2]; 2 mg/kg, SD 2): 69% | Geometric mean percent reduction in live flea (Ctenocephalides felis) counts compared to untreated control rats (Ctenocephalides felis [2]; 2 mg/kg, SD 9): 20% | Geometric mean percent reduction in live flea (Ctenocephalides felis) counts compared to untreated control rats (Ctenocephalides felis [2]; 2 mg/kg, SD 16): 48% | Geometric mean percent reduction in live flea (Ctenocephalides felis) counts compared to untreated control rats (Ctenocephalides felis [2]; 10 mg/kg, SD 2): 100% | Geometric mean percent reduction in live flea (Ctenocephalides felis) counts compared to untreated control rats (Ctenocephalides felis [2]; 10 mg/kg, SD 9): 97% | Geometric mean percent reduction in live flea (Ctenocephalides felis) counts compared to untreated control rats (Ctenocephalides felis [2]; 10 mg/kg, SD 16): 60% | Geometric mean percent reduction in live flea (Ctenocephalides felis) counts compared to untreated control rats (Ctenocephalides felis [2]; 10 mg/kg, SD 23): 0% | Geometric mean percent reduction in live tick (Dermacentor variabilis) counts compared to untreated control rats (Dermacentor variabilis [4]; 2 mg/kg, SD 2): 86% | Geometric mean percent reduction in live tick (Dermacentor variabilis) counts compared to untreated control rats (Dermacentor variabilis [4]; 2 mg/kg, SD 9): 53% | Geometric mean percent reduction in live tick (Dermacentor variabilis) counts compared to untreated control rats (Dermacentor variabilis [4]; 2 mg/kg, SD 16): 5% | Geometric mean percent reduction in live tick (Dermacentor variabilis) counts compared to untreated control rats (Dermacentor variabilis [4]; 10 mg/kg, SD 2): 100% | Geometric mean percent reduction in live tick (Dermacentor variabilis) counts compared to untreated control rats (Dermacentor variabilis [4]; 10 mg/kg, SD 9): 10% | Geometric mean percent reduction in live tick (Dermacentor variabilis) counts compared to untreated control rats (Dermacentor variabilis [4]; 10 mg/kg, SD 16): 78% | Geometric mean percent reduction in live tick (Dermacentor variabilis) counts compared to untreated control rats (Dermacentor variabilis [4]; 10 mg/kg, SD 23): 0%
